# Test results taken from PMC5845353, “The selective cathepsin K inhibitor MIV-711 attenuates joint pathology in experimental animal models of osteoarthritis” (Journal of Translational Medicine, 2018).
# Marks after values point to notes of the source that are not given here.
# Columns and labels:
# [1] = tested on: rabbits subjected to anterior cruciate ligament transection (ACLT); experiment: Rabbit ACLT study, µCT of subchondral bone plate; format: in vivo
# Source text: The animals were acquired following review and approval by the Institutional Animal Care and Use Committee (IACUC) at Numira (Salt Lake City, UT). The protocol was also reviewed and approved by the IACUC at Ibex Preclinical Research Inc. (Logan, UT). Male, New Zealand White rabbits (n = 32) were purchased from the Western Oregon Rabbit Co. (Philomath, OR). The animals were approximately 9 months old, weighed 3.7–4.5 kg at the start of the experiment and were randomized into four treatment groups based on body weight.
# Pre-operative butorphanol (0.5–1.0 mg/kg, i.m.) for analgesia and glycopyrrolate (~ 0.1 mg/kg i.m.) were administered up to 15 min prior to induction. Anesthesia was induced by a mixture of ketamine (20–40 mg/kg, i.m.) and xylazine (5–10 mg/kg, i.m.), followed by placement of an endotracheal tube. General anesthesia was maintained with isoflurane. Perioperative cefazolin (40 mg/kg, i.v.) was administered, and […] (0.2 mg/kg, i.v.) was administered to reverse the effects of xylazine after endotracheal intubation was complete. A fentanyl patch (25 µg/h) was placed on a clipped area of the skin to provide post-operative analgesia. An incision of 1.5–2.5 cm was made in the skin over the medial side of the right knee under aseptic conditions. The patella was dislocated laterally and the knee placed in full flexion. The anterior cruciate ligament (ACL) was visualized and transected with an appropriate blade. In sham animals, the ACL was visualized but not transected. The joint was irrigated with sterile saline and closed. The muscle and skin were closed with suture and/or surgical glue. Butorphanol (0.5–1 mg/kg, i.m.) was administered after extubation to provide supplemental analgesia. The animals were then individually housed in stainless steel or plastic cages.
# Starting 1 week after sham operation or ACLT, animals were dosed daily for 7 weeks by oral gavage with either MIV-711 (synthesized by Medivir and given as a suspension in 1% Methocel A4C in water) or vehicle (1% Methocel A4C in water) at a dose volume of 4 mL/kg. The four treatment groups (n = 7 in each group) were: (1) sham + vehicle; (2) ACLT + vehicle; (3) ACLT + MIV-711, 30 µmol/kg (low dose) and (4) ACLT + MIV-711, 100 µmol/kg (high dose).
# Femora and tibias from all animals were subjected to µCT scanning without and with contrast reagent, to visualize bone and cartilage, respectively. Samples were scanned on a high-resolution, volumetric µCT scanner (μCT40, ScanCo Medical, Zurich, CH). The image data was acquired with the following parameters: 36 μm isotropic voxel resolution at 300 ms exposure time, 2000 views and 1 frame per view. Each sample was scanned twice, once for acquiring bone data and once for soft tissue data. After the bone scans, the knees were stained using hexabrix for contrast-enhanced imaging of the cartilage. The µCT-generated DICOM files were used to analyze the samples and to create volume renderings of the regions of interest (ROI). The raw data files were converted into a file format compatible with the segmentation software VHLab (Numira). VHLab was used for segmenting out the regions of interest (osteophyte, cartilage, and subchondral bone) for the femur and tibia of each sample. A region spanning 9 mm of the articulating surface of the femur and 6.5 mm of the tibia was selected for segmenting out the cartilage and subchondral bone in the anterior–posterior direction. After the segmentation process, the voxel count associated with each of the regions of interest was calculated using VHLab. The voxel count was then multiplied by the cubic voxel resolution to obtain volume measurements for the different ROI. Cartilage thickness was calculated using SCIRun (Scientific Computing and Imaging Institute, University of Utah). The distance from the bone to the outer surface of the articulating cartilage was calculated. An image was generated that translates the distances into a color map for viewing the thickness along the length of the cartilage. […]
# CTX-I = experiment: Urinary CTX-I in dogs subjected to partial medial meniscectomy; format: in vivo; conditions: dog, 30 µmol/kg
# Experimental: Dogs subjected to partial medial meniscectomy received either 30 µmol/kg MIV-711 (synthesized by Medivir and given as a suspension in 1% Methocel A4C; n = 15) or vehicle (1% Methocel A4C; n = 15) by orogastric gavage once daily in the morning. […] Dosing started the day before surgery and lasted through Day 28, the day before necropsy. Each dog was fasted for at least 12 h before dosing and food were returned approximately 4 h following test article administration.
# Urine samples were collected from the animals 1 to 3 days before surgery and treatment (baseline sample), 4 to 7 days after the start of treatment (Day 7 sample) and 26 to 28 days after treatment (Day 28 sample). Dogs were housed in metabolic cages overnight during urine collection. […]
# In rabbits, conventional CTX-I assays to assess bone resorption cannot be used due to species differences. Instead, urinary helical peptide (HP-1) concentrations were measured in rabbits using the MicroVue Helical Peptide kit (Ref: 8022) from Quidel (San Diego, CA) according to the instructions supplied by the manufacturer. In dogs, urinary levels of C-terminal telopeptide of collagen type I (CTX-I) were measured using a commercially available kit (Urine BETA CrossLaps ELISA, Ref: AC-05F1, IDS Nordic Bioscience Diagnostics A/S). […] In dogs, CTX-II levels were also measured in synovial fluid. […]
compound,measurement,setting,value
C#C[C@@H]1CN(C(=O)[C@H](CC(C)C)NC(=O)c2ccc(-c3nc(N4CCN(C)CC4)sc3F)cc2)[C@@H]2C(=O)CO[C@H]12 [MIV-711],"Subchondral bone plate Thickness, Lateral","[1]; Femur, high dose 100 µmol/kg",321 ± 11 µm
same,"Subchondral bone plate Thickness, Medial","[1]; Femur, high dose 100 µmol/kg",388 ± 9 µm
same,"Subchondral bone plate Thickness, Total","[1]; Femur, high dose 100 µmol/kg",353 ± 8 µm
same,"Subchondral bone plate Volume, Lateral","[1]; Femur, high dose 100 µmol/kg",25.7 ± 1.2* mm^3
same,"Subchondral bone plate Volume, Medial","[1]; Femur, high dose 100 µmol/kg",29.9 ± 1.0 mm^3
same,"Subchondral bone plate Volume, Total","[1]; Femur, high dose 100 µmol/kg",55.6 ± 2.0* mm^3
same,"Subchondral bone plate Thickness, Lateral","[1]; Femur, low dose 30 µmol/kg",316 ± 10 µm
same,"Subchondral bone plate Thickness, Medial","[1]; Femur, low dose 30 µmol/kg",380 ± 13 µm
same,"Subchondral bone plate Thickness, Total","[1]; Femur, low dose 30 µmol/kg",347 ± 10 µm
same,"Subchondral bone plate Volume, Lateral","[1]; Femur, low dose 30 µmol/kg",25.0 ± 0.6* mm^3
same,"Subchondral bone plate Volume, Medial","[1]; Femur, low dose 30 µmol/kg",29.4 ± 0.8 mm^3
same,"Subchondral bone plate Volume, Total","[1]; Femur, low dose 30 µmol/kg",54.4 ± 0.8* mm^3
same,"Subchondral bone plate Thickness, Lateral","[1]; Tibia, high dose 100 µmol/kg",353 ± 12 µm
same,"Subchondral bone plate Thickness, Medial","[1]; Tibia, high dose 100 µmol/kg",462 ± 13 µm
same,"Subchondral bone plate Thickness, Total","[1]; Tibia, high dose 100 µmol/kg",401 ± 8 µm
same,"Subchondral bone plate Volume, Lateral","[1]; Tibia, high dose 100 µmol/kg",20.7 ± 1.0* mm^3
same,"Subchondral bone plate Volume, Medial","[1]; Tibia, high dose 100 µmol/kg",20.6 ± 0.5 mm^3
same,"Subchondral bone plate Volume, Total","[1]; Tibia, high dose 100 µmol/kg",41.2 ± 0.9* mm^3
same,"Subchondral bone plate Thickness, Lateral","[1]; Tibia, low dose 30 µmol/kg",326 ± 18 µm
same,"Subchondral bone plate Thickness, Medial","[1]; Tibia, low dose 30 µmol/kg",452 ± 15 µm
same,"Subchondral bone plate Thickness, Total","[1]; Tibia, low dose 30 µmol/kg",383 ± 15 µm
same,"Subchondral bone plate Volume, Lateral","[1]; Tibia, low dose 30 µmol/kg",18.5 ± 1.3* mm^3
same,"Subchondral bone plate Volume, Medial","[1]; Tibia, low dose 30 µmol/kg",20.6 ± 0.8 mm^3
same,"Subchondral bone plate Volume, Total","[1]; Tibia, low dose 30 µmol/kg",39.1 ± 2.0* mm^3
same,"femur subchondral bone plate total thickness, difference vs. sham",[1]; low dose 30 µmol/kg,0%
same,"tibia subchondral bone plate total thickness, difference vs. sham",[1]; low dose 30 µmol/kg,0%
same,urinary CTX-I levels reduced by,"CTX-I; Day 7, vs. baseline",78%
same,urinary CTX-I levels reduced by,"CTX-I; Day 28, vs. baseline",86%
